Test systems include LOX IMVI melanoma; M14 melanoma; NCI-H23 lung; OVCAR-4 ovarian; SK-MEL-28 melanoma; SN12C renal; SW-620 colon; UACC-62 melanoma; COLO 205 colon; SK-OV-3 ovarian; HOP-92 NSCLC.
Holding throughout (assay): NCI tumour cell line growth inhibition, 48 h

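Briefly, cells in 96-well plates were exposed to five compound concentrations for 48 h, and endpoints were estimated by linear interpolation. Here, GI50 denotes the concentration required for 50% inhibition of growth. TGI denotes the concentration required for complete inhibition of growth.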 Where a SMILES comes first, the peptide text is derived from it. The star is where a group is joined. Cbz = O=C(OCc1ccccc1)*; Boc = CC(C)(C)OC(=O)*; OSu = O=C1CCC(=O)N1O*; Bn = c1ccc(C*)cc1

TGI and GI50 data for 14 molecules are collected here from PubChem BioAssay (NCI).

As for `O=C(N=Nc1cccc(Cl)c1)NNc1cccc(Cl)c1`, the TGI with LOX IMVI melanoma was 26.8 µM; with M14 melanoma it was 32.2 µM; with NCI-H23 lung, greater than 100 µM; in the assay on OVCAR-4 ovarian, 52.6 µM; with SK-MEL-28 melanoma it was 41 µM; in the assay with SN12C renal, 35.9 µM. Also, the TGI was 35.5 µM in the assay on SW-620 colon and 24.1 µM in the assay with UACC-62 melanoma.

Regarding `CC(SC(=S)N1CCOCC1)C(=O)Nc1nnc(-c2ccccc2)o1` (stereo not drawn), the TGI in the assay with COLO 205 colon, in the assay with LOX IMVI melanoma, in the assay with M14 melanoma, in the assay with NCI-H23 lung, in the assay on OVCAR-4 ovarian and with SK-MEL-28 melanoma was greater than 100 µM throughout. The TGI with SK-OV-3 ovarian, with SN12C renal and with SW-620 colon was greater than 100 µM each time.

Consider `CC(C)(C)OC(=O)NC(Cc1ccc(OCc2ccccc2)cc1)C(=O)NC(CCCCNC(=O)OCc1ccccc1)C(=O)ON1C(=O)CCC1=O` (stereo not drawn) (Boc-Tyr(Bn)-Lys(Cbz)-OSu; configuration not given here), for which the TGI turned out to be 72.1 µM with COLO 205 colon; 46.2 µM in the assay on M14 melanoma; 34.4 µM in the assay on NCI-H23 lung; 30.8 µM in the assay with SK-MEL-28 melanoma; 32.9 µM with SN12C renal; 41.1 µM in the assay on SW-620 colon. In the assay with UACC-62 melanoma, the TGI came to 33.2 µM.

Take `CC(=O)Nc1ccc2[nH]c(-c3cccc(Cl)c3)cc(=O)c2c1`: the TGI was 39.9 µM in the assay on COLO 205 colon; greater than 100 µM in the assay with HOP-92 NSCLC; greater than 100 µM in the assay on M14 melanoma; greater than 100 µM in the assay with NCI-H23 lung; greater than 100 µM in the assay on OVCAR-4 ovarian; greater than 100 µM in the assay on SK-MEL-28 melanoma. Further, the TGI is 68.5 µM in the assay with SK-OV-3 ovarian, greater than 100 µM in the assay with SN12C renal, greater than 100 µM with SW-620 colon and 84.4 µM in the assay on UACC-62 melanoma. Moreover, the GI50 in the assay with OVCAR-4 ovarian was greater than 100 µM.

As for `Nc1ccn(C2CCC(CO)O2)c(=S)n1` (stereo not drawn), the TGI in the assay with COLO 205 colon, with HOP-92 NSCLC, in the assay with LOX IMVI melanoma, with M14 melanoma, with NCI-H23 lung and in the assay on SK-OV-3 ovarian was greater than 100 µM throughout. Moreover, the TGI in the assay on SN12C renal, in the assay on SW-620 colon and with UACC-62 melanoma was greater than 100 µM each time.

Regarding `CN(N)c1cc(=O)[nH]c(=O)[nH]1`, the TGI in the assay with LOX IMVI melanoma, in the assay on NCI-H23 lung, with OVCAR-4 ovarian, with SK-MEL-28 melanoma, in the assay with SK-OV-3 ovarian and in the assay with SN12C renal was greater than 100 µM in each case. For the same molecule, the TGI in the assay on SW-620 colon and in the assay on UACC-62 melanoma was greater than 100 µM throughout.

With `C=C[C@@H]1C[C@]2(C(=O)OC)Cc3nc4ccccc4nc3CC(C(=O)OC)=C2O1`, the TGI with COLO 205 colon, with LOX IMVI melanoma, in the assay on M14 melanoma, in the assay on NCI-H23 lung, in the assay with OVCAR-4 ovarian and in the assay on SK-MEL-28 melanoma was greater than 100 µM each time. Besides, the TGI in the assay with SK-OV-3 ovarian, in the assay with SN12C renal, with SW-620 colon and in the assay on UACC-62 melanoma was greater than 100 µM each time.

As to `O=C(O)c1cc(/C=C/c2cc(O)ccc2O)ccc1O`, the TGI in the assay with LOX IMVI melanoma, in the assay with M14 melanoma, with NCI-H23 lung, with OVCAR-4 ovarian, with SN12C renal and in the assay with SW-620 colon was greater than 10 µM each time. The TGI with UACC-62 melanoma was greater than 10 µM.

As to `c1ccc([P+](Cc2ccccc2C[P+](c2ccccc2)(c2ccccc2)c2ccccc2)(c2ccccc2)c2ccccc2)cc1`, the TGI in the assay on COLO 205 colon, in the assay on LOX IMVI melanoma, in the assay on M14 melanoma, with NCI-H23 lung, with SK-MEL-28 melanoma and in the assay with SK-OV-3 ovarian was greater than 100 µM throughout. The TGI with SN12C renal, in the assay with SW-620 colon and with UACC-62 melanoma was greater than 100 µM in each case.

For the molecule `CCN1C(=O)C(C)S/C1=N\NC(=O)CSc1nc2ccccc2c(=O)n1CC` (stereo not drawn), the TGI with COLO 205 colon, in the assay on LOX IMVI melanoma, in the assay with M14 melanoma, in the assay on NCI-H23 lung, with OVCAR-4 ovarian and with SK-MEL-28 melanoma was greater than 100 µM in each case. The TGI in the assay with SK-OV-3 ovarian, with SN12C renal, in the assay on SW-620 colon and with UACC-62 melanoma was greater than 100 µM each time.

With `CCOC(=O)C(C)NC(=O)C(C)NC(=O)C(C)NC(=O)C(C)NC(=O)C(C)NC(=O)OCc1ccccc1` (stereo not drawn), the TGI in the assay with COLO 205 colon, in the assay on LOX IMVI melanoma, with M14 melanoma, in the assay with NCI-H23 lung, in the assay with OVCAR-4 ovarian and in the assay with SK-MEL-28 melanoma was greater than 100 µM in each case. Besides, the TGI in the assay on SK-OV-3 ovarian, in the assay on SN12C renal, in the assay on SW-620 colon and with UACC-62 melanoma was greater than 100 µM throughout.

For the molecule `COc1cc(C2C(C#N)=C(N)OC3=C2CCS(=O)(=O)c2ccc(C)cc23)cc(OC)c1OC` (stereo not drawn), the TGI in the assay with COLO 205 colon, with HOP-92 NSCLC, in the assay with LOX IMVI melanoma, in the assay with M14 melanoma, in the assay with NCI-H23 lung and in the assay with OVCAR-4 ovarian was greater than 100 µM each time. In addition, the TGI in the assay with SK-MEL-28 melanoma, in the assay with SN12C renal, in the assay with SW-620 colon and with UACC-62 melanoma was greater than 100 µM each time.

As to `CCOC(=O)[C@@]12C3C=CC(CC3)[C@]1(C(=O)c1ccccc1)C(=O)C(=O)N2c1ccccc1` (stereo partly drawn), the TGI with COLO 205 colon, in the assay on HOP-92 NSCLC, in the assay with M14 melanoma, in the assay with NCI-H23 lung, in the assay on OVCAR-4 ovarian and in the assay on SK-MEL-28 melanoma was greater than 100 µM throughout. Moreover, the TGI in the assay with SK-OV-3 ovarian, in the assay on SN12C renal, in the assay with SW-620 colon and in the assay with UACC-62 melanoma was greater than 100 µM throughout.

`COc1cc2cccc(N)c2cc1OC`: the TGI in the assay with COLO 205 colon, in the assay with LOX IMVI melanoma, with M14 melanoma, in the assay on NCI-H23 lung, with OVCAR-4 ovarian and in the assay with SK-MEL-28 melanoma was greater than 100 µM in each case. In addition, the TGI in the assay on SK-OV-3 ovarian, with SN12C renal, in the assay with SW-620 colon and in the assay with UACC-62 melanoma was greater than 100 µM in each case.
